Reference: PMC6747015, “Structure–function study of a novel inhibitor of the casein kinase 1 family in Arabidopsis thaliana” (Plant Direct, 2019)

Experiments:
[1] = biological target: CKL1 (Arabidopsis thaliana, UniProt P42158); experiment: In vitro CKL1 kinase activity; type: biochemical
Description: Supplemental Figure3.InvitroCKL1 kinaseactivitywithAMI-331.

[2] = tested on: CCA1:LUC seedlings; experiment: Bioluminescence-based circadian period lengthening in CCA1:LUC seedlings; type: in vivo, Arabidopsis thaliana
Experimental: Bioluminescence‐based circadian rhythms of CCA1:LUC plants treated with small molecules were analyzed by auto‐luminescence detection (Churitsu CL96) as described previously (Uehara et al., 2019). Period length was automatically calculated as previously described (Kamioka et al., 2016).
To estimate CK1 inhibitor activity in vivo, we choose to measure circadian period‐lengthening activity in Arabidopsis seedlings. The assay was made more efficient by monitoring the circadian period using a clock reporter plant line (CCA1:LUC) and an automated luminometer. These tools can be used to measure the circadian period with high confidence, and estimates of in vivo CK1 inhibitor activity are quantitative (Uehara et al., 2019). Four‐day‐old CCA1:LUC seedlings grown under 12‐hr light/12‐hr dark conditions were treated with IC261, PF‐670462, and PHA767491 at different concentrations, and seedling luminescence was monitored under constant light conditions. Dimethyl sulfoxide (DMSO), the solvent used for all of the CK1 inhibitors, was used as a control. IC261 lengthened the circadian period of CCA1:LUC seedlings in a dose‐dependent manner (Figure 1d), with a 2‐hr period lengthening at 500 µM. PF‐670462 and PHA767491 treatment concentrations also correlated with period lengthening (Figure 1e and f). The concentrations required for 2‐hr lengthening effects were 90 µM for PF‐670472 and 47 µM for PHA767491, which was consistent with previous work (Uehara et al., 2019). Thus, PHA767491 was the strongest in vivo CK1 inhibitor among the three inhibitors tested.

[3] = biological target: T1, CKL2 (AT1G72710) (Arabidopsis thaliana, UniProt Q9CAI5); experiment: AMI‐329 bead binding with AMI‐331 competitor, CKL2
T1 construct: from tissue; host or cells: Arabidopsis seedlings, two weeks old
T1 sequence (Q9CAI5 whole entry): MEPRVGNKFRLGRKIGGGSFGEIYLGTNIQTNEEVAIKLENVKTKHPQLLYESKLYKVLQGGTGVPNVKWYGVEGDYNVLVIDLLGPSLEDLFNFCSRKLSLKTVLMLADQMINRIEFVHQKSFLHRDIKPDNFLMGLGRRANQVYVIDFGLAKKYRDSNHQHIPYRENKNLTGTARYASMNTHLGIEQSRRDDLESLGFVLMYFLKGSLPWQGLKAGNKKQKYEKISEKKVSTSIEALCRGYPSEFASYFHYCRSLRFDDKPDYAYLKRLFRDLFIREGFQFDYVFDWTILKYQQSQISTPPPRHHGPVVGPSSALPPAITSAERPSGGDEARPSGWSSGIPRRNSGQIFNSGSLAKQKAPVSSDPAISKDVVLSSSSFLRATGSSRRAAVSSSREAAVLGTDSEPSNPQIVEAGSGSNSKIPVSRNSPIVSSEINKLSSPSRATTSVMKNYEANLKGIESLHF
Experimental: (§1) Screening for proteins bound to AMI‐329 beads was done by a method similar to what has previously been described (Uehara et al., 2019). Briefly, two‐week‐old seedlings grown under LD conditions were harvested at time points ZT2, ZT6, ZT9, and ZT17, and stored at −80°C. Proteins from the frozen plant samples were incubated with 0, 5, or 50 µM of AMI‐331 at 4°C for 30 min with rotary mixing. Two technical replicates were used for each experiment. PBS‐washed AMI‐329 beads were added to the protein samples and gently rotated at 4°C for 1 hr. AMI‐329 bead resins were washed with bead buffer (Uehara et al., 2019) six times. The washed resins were suspended in SDS sample buffer and boiled for 8 min. Protein samples were in‐gel‐digested as previously described (Uehara et al., 2019). Peptides were analyzed with a Q Exactive hybrid quadrupole‐orbitrap mass spectrometer (Thermo Fisher Scientific), as described previously (Uehara et al., 2019). […]
(§2) However, another possible mechanism for the strong AMI‐331 biological activity in vivo is that it targets proteins other than the CK1 family for period lengthening. […] It is noteworthy that kinase AT4G08800 is very similar to the CKL family, but the ATP‐binding pocket of mammalian CK1 as determined by its crystal structure (Shinohara et al., 2017) was absent from AT4G08800, as shown in an Araport 11 model (https://www.araport.org). […]

[4] = biological target: T2, CKL5 (AT2G19470) (Arabidopsis thaliana, UniProt Q9ZUP4); experiment: AMI‐329 bead binding with AMI‐331 competitor, CKL5
T2 construct: from tissue; host or cells: Arabidopsis seedlings, two weeks old
T2 sequence (Q9ZUP4 whole entry): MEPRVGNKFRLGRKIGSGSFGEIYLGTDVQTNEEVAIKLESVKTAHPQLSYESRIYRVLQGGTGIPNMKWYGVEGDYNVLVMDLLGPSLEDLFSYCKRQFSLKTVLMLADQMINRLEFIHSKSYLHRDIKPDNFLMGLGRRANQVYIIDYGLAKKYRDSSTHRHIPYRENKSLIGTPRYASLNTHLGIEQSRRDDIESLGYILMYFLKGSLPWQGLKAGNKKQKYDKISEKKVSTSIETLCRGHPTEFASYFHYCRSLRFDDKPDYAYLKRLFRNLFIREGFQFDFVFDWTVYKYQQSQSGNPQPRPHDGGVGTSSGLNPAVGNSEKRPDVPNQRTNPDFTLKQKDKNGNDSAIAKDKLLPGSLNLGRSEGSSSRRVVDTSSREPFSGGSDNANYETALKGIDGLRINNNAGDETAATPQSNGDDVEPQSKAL
Experimental: as §1, §2

[5] = biological target: T3, CKL8 (AT5G43320) (Arabidopsis thaliana, UniProt Q9LSX4); experiment: AMI‐329 bead binding with AMI‐331 competitor, CKL8
T3 construct: from tissue; host or cells: Arabidopsis seedlings, two weeks old
T3 sequence (Q9LSX4 whole entry): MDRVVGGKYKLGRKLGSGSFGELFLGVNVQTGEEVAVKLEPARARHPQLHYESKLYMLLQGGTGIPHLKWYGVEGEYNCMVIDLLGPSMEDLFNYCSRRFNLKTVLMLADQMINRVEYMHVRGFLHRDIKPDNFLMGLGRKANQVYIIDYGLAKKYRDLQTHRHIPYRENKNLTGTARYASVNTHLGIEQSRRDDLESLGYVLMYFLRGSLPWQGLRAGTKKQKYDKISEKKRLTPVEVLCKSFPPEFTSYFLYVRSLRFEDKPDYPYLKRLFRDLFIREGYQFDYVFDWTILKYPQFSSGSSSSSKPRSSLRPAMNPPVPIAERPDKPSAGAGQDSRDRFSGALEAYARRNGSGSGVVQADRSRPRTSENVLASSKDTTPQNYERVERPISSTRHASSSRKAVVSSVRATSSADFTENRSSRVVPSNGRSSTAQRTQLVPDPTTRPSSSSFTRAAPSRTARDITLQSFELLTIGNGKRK
Experimental: as §1, §2

[6] = biological target: T4, CKL10 (AT3G23340) (Arabidopsis thaliana, UniProt Q9LW62); experiment: AMI‐329 bead binding with AMI‐331 competitor, CKL10
T4 construct: from tissue; host or cells: Arabidopsis seedlings, two weeks old
T4 sequence (Q9LW62 whole entry): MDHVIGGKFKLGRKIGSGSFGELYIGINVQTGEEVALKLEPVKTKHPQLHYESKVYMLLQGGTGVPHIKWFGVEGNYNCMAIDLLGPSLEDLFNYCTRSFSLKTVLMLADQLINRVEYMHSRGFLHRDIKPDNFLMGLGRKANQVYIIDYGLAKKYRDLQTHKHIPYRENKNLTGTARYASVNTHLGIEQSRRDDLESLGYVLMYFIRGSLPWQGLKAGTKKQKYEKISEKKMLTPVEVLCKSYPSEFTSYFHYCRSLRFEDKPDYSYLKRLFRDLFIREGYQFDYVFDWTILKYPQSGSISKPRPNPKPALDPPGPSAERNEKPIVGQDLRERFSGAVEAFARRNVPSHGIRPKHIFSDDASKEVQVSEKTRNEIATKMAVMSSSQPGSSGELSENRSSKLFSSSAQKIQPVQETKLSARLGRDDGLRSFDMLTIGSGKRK
Experimental: as §1, §2

[7] = biological target: T5, HYD1 (AT1G20050) (Arabidopsis thaliana, UniProt O48962); experiment: AMI‐329 bead binding with AMI‐331 competitor, HYD1
T5 construct: from tissue; host or cells: Arabidopsis seedlings, two weeks old
T5 sequence (O48962 whole entry): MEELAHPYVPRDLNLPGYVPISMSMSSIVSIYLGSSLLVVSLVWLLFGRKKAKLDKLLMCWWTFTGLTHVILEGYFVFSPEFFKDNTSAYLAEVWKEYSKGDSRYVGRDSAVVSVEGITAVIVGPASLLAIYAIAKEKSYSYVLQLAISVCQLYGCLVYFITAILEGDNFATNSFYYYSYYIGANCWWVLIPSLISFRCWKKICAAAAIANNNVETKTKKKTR
Experimental: as §1, §2

[8] = biological target: T6, YAK1 (AT5G35980) (Arabidopsis thaliana, UniProt Q8RWH3); experiment: AMI‐329 bead binding with AMI‐331 competitor, YAK1
T6 construct: Proteins from the frozen plant samples were incubated with 0, 5, or 50 µM of AMI‐331; from tissue; host or cells: two-week-old Arabidopsis seedlings (protein lysate)
T6 sequence (Q8RWH3 whole entry): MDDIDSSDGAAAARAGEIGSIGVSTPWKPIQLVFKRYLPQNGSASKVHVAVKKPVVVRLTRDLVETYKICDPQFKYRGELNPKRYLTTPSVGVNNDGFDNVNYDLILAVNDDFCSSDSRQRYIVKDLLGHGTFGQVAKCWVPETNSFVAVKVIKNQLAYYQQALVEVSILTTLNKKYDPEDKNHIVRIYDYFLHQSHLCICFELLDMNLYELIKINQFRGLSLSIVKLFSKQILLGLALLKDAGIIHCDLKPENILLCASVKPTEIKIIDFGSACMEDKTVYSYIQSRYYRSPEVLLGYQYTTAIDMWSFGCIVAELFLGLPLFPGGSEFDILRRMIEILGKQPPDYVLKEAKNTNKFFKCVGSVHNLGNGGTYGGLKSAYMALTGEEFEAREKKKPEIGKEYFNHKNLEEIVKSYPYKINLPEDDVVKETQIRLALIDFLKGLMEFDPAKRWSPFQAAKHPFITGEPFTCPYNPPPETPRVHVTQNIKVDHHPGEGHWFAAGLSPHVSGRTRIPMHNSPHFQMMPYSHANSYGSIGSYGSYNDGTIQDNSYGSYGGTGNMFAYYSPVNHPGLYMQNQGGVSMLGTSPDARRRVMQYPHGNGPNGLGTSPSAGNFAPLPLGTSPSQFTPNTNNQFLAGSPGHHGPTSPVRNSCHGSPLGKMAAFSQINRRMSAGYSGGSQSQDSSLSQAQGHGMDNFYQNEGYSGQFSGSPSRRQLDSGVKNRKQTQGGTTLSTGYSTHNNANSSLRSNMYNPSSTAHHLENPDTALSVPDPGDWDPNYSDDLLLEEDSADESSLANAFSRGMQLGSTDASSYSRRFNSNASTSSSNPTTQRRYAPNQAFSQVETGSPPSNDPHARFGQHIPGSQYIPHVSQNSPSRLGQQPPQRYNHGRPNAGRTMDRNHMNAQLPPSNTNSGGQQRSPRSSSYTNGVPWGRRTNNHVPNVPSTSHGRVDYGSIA
Experimental: as §1, §2

[9] = CCA1:LUC seedlings, constant light

CKL1, sequence (P42158 whole entry): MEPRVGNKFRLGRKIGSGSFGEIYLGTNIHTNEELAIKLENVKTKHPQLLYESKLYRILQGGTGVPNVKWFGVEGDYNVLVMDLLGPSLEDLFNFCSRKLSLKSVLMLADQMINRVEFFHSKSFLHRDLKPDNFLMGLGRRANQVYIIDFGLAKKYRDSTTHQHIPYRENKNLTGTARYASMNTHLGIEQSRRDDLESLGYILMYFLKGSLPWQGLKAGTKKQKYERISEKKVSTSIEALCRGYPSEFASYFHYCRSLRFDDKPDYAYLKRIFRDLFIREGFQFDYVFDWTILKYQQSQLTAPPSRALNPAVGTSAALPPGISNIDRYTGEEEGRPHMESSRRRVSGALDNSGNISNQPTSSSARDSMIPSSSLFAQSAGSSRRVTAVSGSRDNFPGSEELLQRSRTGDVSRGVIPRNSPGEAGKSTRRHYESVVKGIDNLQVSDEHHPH

In the case of C#CCn1c2c(c(Br)c1-c1ccncc1)C(=O)NCC2.Cl [AMI‐331], the IC50 [1] is reported as 1400 nM, the “Concentration required for 2‐hr period lengthening (2hLC)” value [2, 9] is reported as 0.4 µM and the “Concentration required for 5‐hr period lengthening (5hLC)” value [2, 9] is reported as 1.4 µM. For the same compound, the “Concentration that significantly lengthens the circadian clock period” value ([2]; in vivo) was “below 1 µM”, the “Spectra (PSMs) AMI‐329 beads bound” value ([3]; competitor AMI‐331 5 µM) was 1 PSMs and the “Spectra (PSMs) AMI‐329 beads bound” value ([3]; competitor AMI‐331 50 µM) was 0 PSMs. The “Spectra (PSMs) AMI‐329 beads bound” value ([4]; competitor AMI‐331 5 µM) was 1 PSMs, the “Spectra (PSMs) AMI‐329 beads bound” value ([4]; competitor AMI‐331 50 µM) was 0 PSMs and the “Spectra (PSMs) AMI‐329 beads bound” value ([5]; competitor AMI‐331 5 µM) was 0 PSMs. The “Spectra (PSMs) AMI‐329 beads bound” value ([5]; competitor AMI‐331 50 µM) was 0 PSMs, the “Spectra (PSMs) AMI‐329 beads bound” value ([6]; competitor AMI‐331 5 µM) was 1 PSMs and the “Spectra (PSMs) AMI‐329 beads bound” value ([6]; competitor AMI‐331 50 µM) was 0 PSMs. For the same compound, the “Spectra (PSMs) AMI‐329 beads bound” value ([7]; competitor AMI‐331 5 µM) was 0 PSMs, the “Spectra (PSMs) AMI‐329 beads bound” value ([7]; competitor AMI‐331 50 µM) was 0 PSMs and the “Spectra (PSMs) AMI‐329 beads bound” value ([8]; competitor AMI‐331 5 µM) was 0 PSMs. For the same compound, the “Spectra (PSMs) AMI‐329 beads bound” value ([8]; competitor AMI‐331 50 µM) was 0 PSMs.
